Laboratory results as given in ChEMBL document CHEMBL1944557 (Bioorg Med Chem, 2012).

Tests used:
[1] = biological target: T1, 5-hydroxytryptamine receptor 2C (Homo sapiens, UniProt P28335); experiment: Binding affinity at 5-HT2C receptor by radioligand displacement assay
T1 sequence (P28335 whole entry): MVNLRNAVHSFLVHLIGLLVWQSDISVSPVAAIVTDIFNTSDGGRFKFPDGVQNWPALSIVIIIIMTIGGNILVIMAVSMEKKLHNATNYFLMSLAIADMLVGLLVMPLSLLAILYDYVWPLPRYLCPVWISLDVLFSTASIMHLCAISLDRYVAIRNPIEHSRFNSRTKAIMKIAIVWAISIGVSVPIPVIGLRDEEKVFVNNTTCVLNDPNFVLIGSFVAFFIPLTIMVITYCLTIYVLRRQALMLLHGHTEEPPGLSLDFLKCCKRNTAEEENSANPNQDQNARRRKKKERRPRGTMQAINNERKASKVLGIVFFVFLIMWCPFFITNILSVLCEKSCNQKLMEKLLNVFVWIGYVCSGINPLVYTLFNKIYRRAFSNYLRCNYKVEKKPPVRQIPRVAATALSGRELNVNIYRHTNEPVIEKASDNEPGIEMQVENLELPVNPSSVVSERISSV

Histamine H1 receptor = Histamine H1 receptor (Homo sapiens, UniProt P35367); experiment: Displacement of [3H]-Pyrilamine from human histamine H1 receptor by liquid scintillation counter
Chain of Histamine H1 receptor (P35367 whole entry): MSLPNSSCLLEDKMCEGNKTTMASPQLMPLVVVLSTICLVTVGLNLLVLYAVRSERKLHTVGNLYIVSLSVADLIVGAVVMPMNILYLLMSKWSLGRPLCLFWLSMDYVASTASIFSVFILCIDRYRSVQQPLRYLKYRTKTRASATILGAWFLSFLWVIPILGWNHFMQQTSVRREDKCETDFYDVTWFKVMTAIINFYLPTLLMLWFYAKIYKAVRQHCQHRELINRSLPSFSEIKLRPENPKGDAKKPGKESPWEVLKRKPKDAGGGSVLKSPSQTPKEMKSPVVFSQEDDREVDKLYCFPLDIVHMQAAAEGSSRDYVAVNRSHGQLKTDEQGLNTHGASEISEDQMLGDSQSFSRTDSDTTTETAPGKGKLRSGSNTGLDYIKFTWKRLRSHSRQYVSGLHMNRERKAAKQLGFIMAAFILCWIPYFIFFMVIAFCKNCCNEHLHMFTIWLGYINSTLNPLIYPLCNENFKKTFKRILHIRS

[2] = biological target: 5-hydroxytryptamine receptor 2A (Homo sapiens, UniProt P28223); experiment: Binding affinity at 5-HT2A receptor by radioligand displacement assay
Chain of 5-hydroxytryptamine receptor 2A (P28223 whole entry): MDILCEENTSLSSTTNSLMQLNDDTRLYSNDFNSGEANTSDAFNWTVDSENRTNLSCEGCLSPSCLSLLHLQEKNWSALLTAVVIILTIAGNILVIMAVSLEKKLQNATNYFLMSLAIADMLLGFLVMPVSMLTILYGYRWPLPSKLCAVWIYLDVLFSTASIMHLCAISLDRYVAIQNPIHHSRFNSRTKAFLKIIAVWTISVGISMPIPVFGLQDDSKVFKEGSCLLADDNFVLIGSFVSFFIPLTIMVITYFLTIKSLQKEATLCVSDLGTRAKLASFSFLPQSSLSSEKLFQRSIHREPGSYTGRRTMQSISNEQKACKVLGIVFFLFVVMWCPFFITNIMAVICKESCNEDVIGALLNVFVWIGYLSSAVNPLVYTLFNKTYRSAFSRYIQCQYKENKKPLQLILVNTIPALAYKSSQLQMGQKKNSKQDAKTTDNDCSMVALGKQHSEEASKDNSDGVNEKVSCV

D(4) dopamine receptor = biological target: T2, D(4) dopamine receptor (Rattus norvegicus, UniProt P30729); experiment: Displacement of [3H]-N-methylspiperone from rat dopamine D4 receptor
T2 sequence (P30729 whole entry): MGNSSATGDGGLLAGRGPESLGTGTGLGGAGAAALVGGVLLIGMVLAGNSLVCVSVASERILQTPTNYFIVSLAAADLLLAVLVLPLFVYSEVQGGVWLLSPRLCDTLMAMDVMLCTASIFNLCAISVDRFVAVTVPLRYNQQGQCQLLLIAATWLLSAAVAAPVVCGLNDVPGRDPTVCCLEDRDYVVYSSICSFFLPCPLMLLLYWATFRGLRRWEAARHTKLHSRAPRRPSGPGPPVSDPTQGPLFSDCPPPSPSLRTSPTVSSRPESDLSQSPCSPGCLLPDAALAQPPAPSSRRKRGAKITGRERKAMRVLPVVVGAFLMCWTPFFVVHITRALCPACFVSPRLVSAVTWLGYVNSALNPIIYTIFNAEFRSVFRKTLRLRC

D(3) dopamine receptor = D(3) dopamine receptor (Homo sapiens, UniProt P35462); experiment: Displacement of [3H]-N-methylspiperone from dopamine D3 receptor expressed in […] MES-23.5
Chain of D(3) dopamine receptor (P35462 whole entry): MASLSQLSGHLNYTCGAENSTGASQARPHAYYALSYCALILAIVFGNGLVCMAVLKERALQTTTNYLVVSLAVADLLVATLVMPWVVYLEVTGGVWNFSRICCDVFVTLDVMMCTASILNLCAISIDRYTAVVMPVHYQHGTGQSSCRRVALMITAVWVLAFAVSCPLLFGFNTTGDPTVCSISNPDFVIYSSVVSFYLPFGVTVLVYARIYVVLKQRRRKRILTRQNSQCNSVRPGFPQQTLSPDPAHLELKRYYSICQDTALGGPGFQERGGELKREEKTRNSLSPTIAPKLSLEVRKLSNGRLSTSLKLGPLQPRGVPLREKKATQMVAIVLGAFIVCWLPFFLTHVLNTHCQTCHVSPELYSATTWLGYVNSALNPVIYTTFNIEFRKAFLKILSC

D(2) dopamine receptor = D(2) dopamine receptor (Homo sapiens, UniProt P14416); experiment: Displacement of [3H]-N-methylspiperone from dopamine D2 receptor expressed in […] MES-23.5 cells; format: cell-based
Chain of D(2) dopamine receptor (P14416 whole entry): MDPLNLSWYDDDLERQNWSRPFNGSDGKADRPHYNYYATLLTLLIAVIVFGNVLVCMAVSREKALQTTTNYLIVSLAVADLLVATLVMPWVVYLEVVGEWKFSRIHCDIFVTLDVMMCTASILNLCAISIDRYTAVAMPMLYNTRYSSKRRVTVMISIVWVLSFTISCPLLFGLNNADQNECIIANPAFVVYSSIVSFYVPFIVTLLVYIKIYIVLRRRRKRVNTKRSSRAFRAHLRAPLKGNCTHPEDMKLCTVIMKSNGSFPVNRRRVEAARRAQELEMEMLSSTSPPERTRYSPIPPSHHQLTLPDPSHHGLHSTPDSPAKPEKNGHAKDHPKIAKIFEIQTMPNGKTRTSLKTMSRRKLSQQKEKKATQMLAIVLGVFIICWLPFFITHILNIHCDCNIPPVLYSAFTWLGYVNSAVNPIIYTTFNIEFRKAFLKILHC

[3] = biological target: T3, 5-hydroxytryptamine receptor 1A (Homo sapiens, UniProt P08908); experiment: Displacement of [3H]8-OH-DPAT from 5-HT1A receptor expressed in CHO cells after 20 mins by liquid scintillation counting; format: cell-based
T3 sequence (P08908 whole entry): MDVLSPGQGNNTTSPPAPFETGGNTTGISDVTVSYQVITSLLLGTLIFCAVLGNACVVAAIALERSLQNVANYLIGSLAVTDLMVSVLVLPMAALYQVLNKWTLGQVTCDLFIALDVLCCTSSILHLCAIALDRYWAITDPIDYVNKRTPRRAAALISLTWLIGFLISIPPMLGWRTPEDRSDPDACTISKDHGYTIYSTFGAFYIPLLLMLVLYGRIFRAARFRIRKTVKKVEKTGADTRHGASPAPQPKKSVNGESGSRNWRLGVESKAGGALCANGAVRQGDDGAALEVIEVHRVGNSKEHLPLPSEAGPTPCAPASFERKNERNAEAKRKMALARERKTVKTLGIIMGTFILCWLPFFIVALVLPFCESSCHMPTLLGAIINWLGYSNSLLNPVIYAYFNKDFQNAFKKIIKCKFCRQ

Ki ([1]; read-out: Ki) [nM] | Ki ([2]; read-out: Ki) [nM] | Ki (D(4) dopamine receptor) [nM] | Ki (D(3) dopamine receptor) [nM] | Ki (D(2) dopamine receptor; read-out: Ki) [nM] | Ki (Histamine H1 receptor) | Ki ([3]; cho) | Structure (SMILES) | Ki [1] | Ki (Histamine H1 receptor; read-out: Ki) [nM] | Ki ([3]; read-out: Ki) [nM] | Ki (D(2) dopamine receptor) | Ki [2]
 |  |  |  |  |  |  | OC1(c2ccc(Cl)cc2)C[C@H]2CC[C@@H](C1)N2CCCOc1ccc(F)cc1 (stereo partly specified) | Not Active |  |  |  | 
> 10000 | 567 |  |  |  |  |  | Fc1ccc(OCCCN2CCCN(c3ccc(Cl)cc3)CC2)cc1 |  | 509 |  |  | 
4100 | 510 | 123 | 3040 | 139 |  |  | Fc1ccc(CCCCN2CCCN(c3ccc(Cl)cc3)CC2)cc1 |  | 1250 |  |  | 
1420 | 159 | 28.6 | 152 | 259 |  |  | Clc1ccc(N2CCCN(CCCCc3nc4ccccc4s3)CC2)cc1 |  | 61 | 263 |  | 
 |  |  |  |  | Not Active | Not Active | Clc1ccc(N2CCCN(Cc3nc4ccccc4s3)CC2)cc1 | Not Active |  |  |  | Not Active
 | 1040 | 126 | 777 |  |  | Not Active | O=C(CCCN1CCCN(c2ccc(Cl)cc2)CC1)c1nc2ccccc2s1 | Not Active |  |  | Not Active | 

Structure (SMILES) | Ki ([1]; read-out: Ki) [nM] | Ki ([2]; read-out: Ki) [nM] | Ki (D(4) dopamine receptor) [nM] | Ki (D(3) dopamine receptor) [nM] | Ki (D(2) dopamine receptor; read-out: Ki) [nM] | Ki (Histamine H1 receptor) | Ki ([3]; cho) | Ki [1] | Ki (Histamine H1 receptor; read-out: Ki) [nM] | Ki ([3]; read-out: Ki) [nM] | Ki (D(2) dopamine receptor) | Ki [2]
Fc1ccc(SCCCN2CCCN(c3ccc(Cl)cc3)CC2)cc1 | 2530 | 163 |  |  |  |  |  |  | 800 |  |  | 
Clc1ccc(N2CCCN(CCCc3nc4ccccc4s3)CC2)cc1 |  | 696 | 431 | 863 |  |  |  |  | 665 | 216 | Not Active | 
O=C(CCCCN1CCCN(c2ccc(Cl)cc2)CC1)c1nc2ccccc2s1 | 5920 | 1000 | 1210 | 1050 | 1980 |  |  |  | 129 | 495 |  | 
O=C(CCCCN1[C@@H]2CC[C@H]1CC(O)(c1ccc(Cl)cc1)C2)c1nc2ccccc2s1 (stereo partly specified) |  |  |  |  |  |  | Not Active | Not Active |  |  |  | Not Active
